Results published in patent publication US10703733B2, “MCL-1 inhibitors” (Gilead Sciences, Inc., priority 2018, dated 2020).
pEC50, pIC50: −log10 of the molar value. Read-outs that look alike come from different tables or passages of the source.

Legend:
[1] = molecular target: MCL-1/Bim interaction (recombinant human MCL-1 protein, residues 171-327; biotinylated human Bim peptide, residues 51-76) (Homo sapiens (Human), UniProt Q07820); assay: MCL-1/Bim Binding AlphaLISA Assay; settings: 0.0625 nM 6xHis-Mcl-1 (171-327), 0.0625 nM biotinylated-Bim peptide
MCL-1/Bim interaction (recombinant human MCL-1 protein, residues 171-327; biotinylated human Bim peptide, residues 51-76), sequence (Q07820 171-327): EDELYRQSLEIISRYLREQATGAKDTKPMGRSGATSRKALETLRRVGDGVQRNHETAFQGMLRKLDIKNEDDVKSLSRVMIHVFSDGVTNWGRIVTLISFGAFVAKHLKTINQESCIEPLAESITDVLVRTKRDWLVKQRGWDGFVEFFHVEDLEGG
Outline: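 AlphaLISA with 0.0625 nM His-tagged MCL-1 (171-327) and 0.0625 nM biotinylated Bim (51-76) in 20 mM Hepes pH 7.5, 150 mM NaCl, 0.002% Brij 35, 1 mM DTT, 0.01% BSA. Compound preincubated 1 h with MCL-1, then Bim 2 h, acceptor beads 1 h, donor beads 1 h; percent inhibition against DMSO and no-protein/no-peptide controls.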

SKBR3 cells = assay: SKBR3 Cell Viability Assay (CellTiter Glo); format: cell-based; settings: CellTiter Glo luminescence, read-out: MCL-1 CV SKBR3 EC50
Outline: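 SKBR3 cells (6,000/well) in McCoy 5A + 10% FBS exposed to serially diluted compound for 72 h at 37° C., 5% CO2. Viability by CellTiter Glo luminescence; % inhibition normalized to DMSO (negative) and 10 μM puromycin (positive).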

Row | SMILES | pIC50 [1] | pEC50 (SKBR3 cells; Homo sapiens, SK-BR-3, 72 h) | pEC50 (SKBR3 cells; 72 hours)
1 | CO[C@@H]1CC[C@@H](NC(=O)N[S@@]2(=O)=NC(=O)c3ccc4c(c3)N(C[C@@H]3CC[C@H]3[C@@H](OC)/C=C/C[C@H](C)C2)C[C@@]2(CCCc3cc(Cl)ccc32)CO4)C1 [Example 322] | 10.24 | 7.19 | –
2 | CO[C@H]1/C=C/C[C@H](C)C[S@@](=O)(NC(=O)N2C[C@H](OC)[C@H]2C)=NC(=O)c2ccc3c(c2)N(C[C@@H]2CC[C@H]21)C[C@@]1(CCCc2cc(Cl)ccc21)CO3 [Example 250] | 10.54 | 7.35 | –
3 | COC[C@H]1Cn2cc(C(=O)N[S@@]3(=O)=NC(=O)c4ccc5c(c4)N(C[C@@H]4CC[C@H]4[C@@H](O)/C=C/C[C@H](C)C3)C[C@@]3(CCCc4cc(Cl)ccc43)CO5)cc2CO1 [Example 325] | 10.00 | 7.30 | –
4 | CO[C@H]1/C=C/C[C@H](C)C[S@@](=O)(NC(=O)COC2(C)CCOCC2)=NC(=O)c2ccc3c(c2)N(C[C@@H]2CC[C@H]21)C[C@@]1(CCCc2cc(Cl)ccc21)CO3 [Example 124] | 10.18 | 7.02 | –
5 | COC1CN(C(=O)N[S@@]2(=O)=NC(=O)c3ccc4c(c3)N(C[C@@H]3CC[C@H]3[C@@H](OC)/C=C/CCC2)C[C@@]2(CCCc3cc(Cl)ccc32)CO4)C1 [Example 390] | 10.21 | 7.06 | –
6 | CO[C@H]1/C=C/C[C@H](C)C[S@@](=O)(NC(=O)c2cc(CN3CCOCC3)n(C)c2)=NC(=O)c2ccc3c(c2)N(C[C@@H]2CC[C@H]21)C[C@@]1(CCCc2cc(Cl)ccc21)CO3 [Example 308] | 10.51 | 7.79 | –
7 | CO[C@H]1/C=C/[C@H](OC)[C@H](C)C[S@@](=O)(NC(=O)N[C@H]2CC2C(F)F)=NC(=O)c2ccc3c(c2)N(C[C@@H]2CC[C@H]21)C[C@@]1(CCCc2cc(Cl)ccc21)CO3 (some centres unmarked) [Example 227] | 10.12 | 7.67 | –
8 | COc1nn(C)cc1C(=O)N[S@@]1(=O)=NC(=O)c2ccc3c(c2)N(C[C@@H]2CC[C@H]2[C@@H](OC)/C=C/C[C@H](C)[C@H]1C)C[C@@]1(CCCc2cc(Cl)ccc21)CO3 [Example 188] | 10.16 | 7.11 | –
9 | COC1CN(c2nn(C)cc2C(=O)N[S@@]2(=O)=NC(=O)c3ccc4c(c3)N(C[C@@H]3CC[C@H]3[C@@H](OC)/C=C/C[C@H](C)C2)C[C@@]2(CCCc3cc(Cl)ccc32)CO4)C1 [Example 379] | 9.08 | 5.78 | –
10 | COc1nn(C)cc1C(=O)N[S@@]1(=O)=NC(=O)c2ccc3c(c2)N(C[C@@H]2CC[C@H]2[C@@H](OC(=O)OC(C)C)/C=C/C[C@H](C)C1)C[C@@]1(CCCc2cc(Cl)ccc21)CO3 [Example 384] | 9.47 | 6.81 | –
11 | CO[C@H]1/C=C/C[C@H](C)C[S@@](=O)(NC(=O)N2CC(C#N)C2)=NC(=O)c2ccc3c(c2)N(C[C@@H]2CC[C@H]21)C[C@@]1(CCCc2cc(Cl)ccc21)CO3 [Example 233] | 10.80 | 7.33 | –
12 | COc1c(C(=O)N[S@@]2(=O)=NC(=O)c3ccc4c(c3)N(C[C@@H]3CC[C@H]3[C@@H](OC)/C=C/C[C@H](C)C2)C[C@@]2(CCCc3cc(Cl)ccc32)CO4)cn2c1COCC2 [Example 191] | 9.99 | 6.91 | –
13 | CO[C@H]1/C=C/C[C@H](C)C[S@@](=O)(NC(=O)N2CC(OC)(c3nccn3C)C2)=NC(=O)c2ccc3c(c2)N(C[C@@H]2CC[C@H]21)C[C@@]1(CCCc2cc(Cl)ccc21)CO3 [Example 276] | 10.17 | 7.19 | –
14 | CO[C@H]1/C=C/C[C@H](C)C[S@@](=O)(NC(=O)c2cn(C)nc2Cl)=NC(=O)c2ccc3c(c2)N(C[C@@H]2CC[C@H]21)C[C@@]1(CCCc2cc(Cl)ccc21)CO3 [Example 126] | 10.00 | 6.91 | –
15 | COc1nn(C)cc1C(=O)N[S@@]1(=O)=NC(=O)c2ccc3c(c2)N(C[C@@H]2CC[C@H]2[C@@H](O)CCC[C@H](C)C1)C[C@@]1(CCCc2cc(Cl)ccc21)CO3 [Example 280] | 10.36 | 7.30 | –
16 | CCn1cc(C(=O)N[S@@]2(=O)=NC(=O)c3ccc4c(c3)N(C[C@@H]3CC[C@H]3[C@@H](OC)/C=C/C[C@H](C)[C@H]2C)C[C@@]2(CCCc3cc(Cl)ccc32)CO4)cn1 [Example 153] | 10.07 | 7.16 | –
17 | COc1ncc(C(=O)N[S@@]2(=O)=NC(=O)c3ccc4c(c3)N(C[C@@H]3CC[C@H]3[C@@H](OC)/C=C/C[C@H](C)C2)C[C@@]2(CCCc3cc(Cl)ccc32)CO4)c(OC)n1 [Example 271] | 10.00 | 6.76 | –
18 | CO[C@H]1/C=C/C[C@H](C)C[S@@](=O)(NC(=O)N[C@H]2C[C@@H](COC(=O)N(C)C)C2)=NC(=O)c2ccc3c(c2)N(C[C@@H]2CC[C@H]21)C[C@@]1(CCCc2cc(Cl)ccc21)CO3 [Example 336] | 10.00 | 7.22 | –
19 | COc1nn(C)cc1C(=O)N[S@@]1(=O)=NC(=O)c2ccc3c(c2)N(C[C@@H]2CC[C@H]2[C@@H](OC)/C=C/[C@H](OCC(=O)N(C)C)[C@H](C)C1)C[C@@]1(CCCc2cc(Cl)ccc21)CO3 [Example 401] | 10.36 | 6.93 | –
20 | COCCOCCO[C@H]1/C=C/[C@H](OC)[C@@H]2CC[C@H]2CN2C[C@@]3(CCCc4cc(Cl)ccc43)COc3ccc(cc32)C(=O)N=[S@](=O)(NC(=O)c2cn(C)nc2OC)C[C@H]1C [Example 376] | 10.51 | 7.57 | –
21 | COC(=O)N1CC(NC(=O)N[S@@]2(=O)=NC(=O)c3ccc4c(c3)N(C[C@@H]3CC[C@H]3[C@@H](OC)/C=C/C[C@H](C)C2)C[C@@]2(CCCc3cc(Cl)ccc32)CO4)C1 [Example 114] | 10.37 | 6.81 | –
22 | COc1c(C(=O)N[S@@]2(=O)=NC(=O)c3ccc4c(c3)N(C[C@@H]3CC[C@H]3[C@@H](OC)/C=C/C[C@H](C)C2)C[C@@]2(CCCc3cc(Cl)ccc32)CO4)cn2c1C[C@H](OC)C2 [Example 451] | 9.28 | 6.79 | –
23 | CC[C@@H]1CC/C=C/[C@H](OC)[C@@H]2CC[C@H]2CN2C[C@@]3(CCCc4cc(Cl)ccc43)COc3ccc(cc32)C(=O)N=[S@@]1(=O)NC(=O)CCc1ccnn1C [Example 70] | 9.70 | – | 6.43
24 | CO[C@H]1/C=C/C[C@H](C)C[S@@](=O)(NC(=O)c2cn(C)nc2OCC2OCCO2)=NC(=O)c2ccc3c(c2)N(C[C@@H]2CC[C@H]21)C[C@@]1(CCCc2cc(Cl)ccc21)CO3 [Example 356] | 10.09 | 6.63 | –
25 | CNC1CN(C(=O)N[S@@]2(=O)=NC(=O)c3ccc4c(c3)N(C[C@@H]3CC[C@H]3[C@@H](OC)/C=C/C[C@H](C)C2)C[C@@]2(CCCc3cc(Cl)ccc32)CO4)C1 [Example 294] | 9.89 | 6.58 | –
26 | CO[C@H]1/C=C/C[C@H](C)C[S@@](=O)(NC(=O)[C@@H](O)Cc2ccccc2)=NC(=O)c2ccc3c(c2)N(C[C@@H]2CC[C@H]21)C[C@@]1(CCCc2cc(Cl)ccc21)CO3 [Example 121] | 9.79 | 7.15 | –
27 | COc1nc(N2CCOCC2)ncc1C(=O)N[S@@]1(=O)=NC(=O)c2ccc3c(c2)N(C[C@@H]2CC[C@H]2[C@@H](OC)/C=C/C[C@H](C)C1)C[C@@]1(CCCc2cc(Cl)ccc21)CO3 [Example 462] | 9.60 | 6.46 | –
28 | COC(=O)[C@]1(C)C[C@H](NC(=O)N[S@@]2(=O)=NC(=O)c3ccc4c(c3)N(C[C@@H]3CC[C@H]3[C@@H](OC)/C=C/C[C@H](C)C2)C[C@@]2(CCCc3cc(Cl)ccc32)CO4)C1 [Example 305] | 10.06 | 6.86 | –
